Experimental data taken from PMC5923485 (Viruses, 2018).
Where two headings read alike, the source gives them in different places.

What was measured:
[1] = tested on: RVFV; settings: mouse, in vivo; cited from earlier work
[2] = tested on: RVFV MP12 ∆NSs-Luc; assay: microbe, parasite or virus in culture; format: cell-based, Rift Valley fever virus; settings: for inhibition at 100 µM: read-out: inhibition of RVFV MP12-luc
[3] = tested on: S6 ribosomal protein (Ser235/236) phosphorylation and RVFV NP; format: cell-based, mouse
[4] = in vitro; settings: mouse
[5] = tested on: RVFV MP12; format: cell-based, Rift Valley fever virus
[6] = tested on: H2.35 cells

Structure (SMILES)	protection from RVFV induced pathogenesis [1]	EC50 ([2]; Rift Valley fever virus, 18 h)	levels of RVFV NP [3]	phosphorylation of S6 ribosomal protein (Ser 235/236) [3]	CC50 [4]	increase of infectious viral titer [5]	effect of increasing drug concentration on viral replication (luciferase) [2]	effect on RVFV titers [5]	inhibition at 100 µM ([2]; Rift Valley fever virus)	decrease in viability ([6]; mouse)	cell toxicity [6]	EC50 ([2]; read-out: EC50)	CC50 [6]
CO[C@H]1C[C@@H]2CC[C@@H](C)[C@@](O)(O2)C(=O)C(=O)N2CCCC[C@H]2C(=O)O[C@H]([C@H](C)C[C@@H]2CC[C@@H](O)[C@H](OC)C2)CC(=O)[C@H](C)/C=C(\C)[C@@H](O)[C@@H](OC)C(=O)[C@H](C)C[C@H](C)/C=C/C=C/C=C/1C [Rapamycin]	protects mice	18 µM	markedly decreased	markedly decreased	> 100 µM								
CC(C)CCN1c2nc(Nc3cc(F)c(O)c(F)c3)ncc2N(C)C(=O)C1C (centres unmarked) [BI-D1870]			modestly increased	no apparent change		approximately 0.5 log	viral replication increased						
O=C(NOC[C@H](O)CO)c1ccc(F)c(F)c1Nc1ccc(I)cc1F [PD0325901]		> 50 µM	minimal inhibition	minimal inhibition	> 100 µM			minimal inhibition	52%	~ 20%			
C[S+]([O-])c1ccc(-c2nc(-c3ccncc3)c(-c3ccc(F)cc3)[nH]2)cc1 (centres unmarked) [SB203580]			minimal inhibition	minimal inhibition	> 100 µM			minimal inhibition	45%		no appreciable cell toxicity		
CCc1cncnc1N1CCN(Cc2nc3ccc(C(F)(F)F)cc3[nH]2)CC1 [PF-4708671]			decreased	decreased phosphorylation								17 µM	> 50 µM
